Laboratory results taken from ChEMBL document CHEMBL5149994, “Anticancer potential of indirubins in medicinal chemistry: Biological activity, structural modification, and structure-activity relationship” (Eur J Med Chem, 2021).
pIC50: −log10 of the molar value. Values after ≈ are worked out from the molar mass of the structure shown.

Tests used:
A549 = test: Antiproliferative activity against human A549 cells assessed as cell growth inhibition measured after 96 hrs by MTT assay; type: functional, cell-based; details: A549, 96 h
CH1 = test: Antiproliferative activity against human CH1 cells assessed as cell growth inhibition measured after 96 hrs by MTT assay; type: functional, cell-based; details: CH1, 96 h
SW480 [1] = test: Antiproliferative activity against human SW480 cells assessed as cell growth inhibition measured after 96 hrs by MTT assay; type: functional, cell-based; details: SW480, 96 h
PC-3 = test: Cytotoxicity against human PC-3 cells assessed as cell growth inhibition by MTT assay; type: functional, cell-based
MCF7 [2] = test: Cytotoxicity against human MCF7 cells assessed as cell growth inhibition by MTT assay; type: functional, cell-based
LoVo = test: Cytotoxicity against human LoVo cells assessed as cell growth inhibition by MTT assay; type: functional, cell-based
LNCaP = test: Cytotoxicity against human LNCaP cells assessed as cell growth inhibition by MTT assay; type: functional, cell-based
DU-145 [3] = test: Cytotoxicity against human DU-145 cells assessed as cell growth inhibition by MTT assay; type: functional, cell-based
[4] = Inhibition of GST-tagged recombinant human CDK2/cyclin E expressed in Sf9 cells incubated for 10 mins in presence of [33P]-gamma ATP and ATP by scintillation counter method
MCF7 [5] = test: Cytotoxicity against human MCF7 cells assessed as cell growth inhibition measured after 4 days by crystal violet staining based assay; type: functional; details: MCF7, 96 h
[6] = Kinetic solubility of compound in PBS at pH 7.4; type: physicochemical; details: read-out: Kinetic_solubility
CDK2/Cyclin A2 = CDK2/Cyclin A2 (Homo sapiens, UniProt P24941); test: Inhibition of CDK2/cyclin A (unknown origin); type: protein-complex assay
HepG2 [7] = test: Antiproliferative activity against human HepG2 cells assessed as cell growth inhibition measured after 72 hrs by MTT assay; type: functional, cell-based; details: HepG2, 72 h
[8] = Antiproliferative activity against human Lu1 cells assessed as cell growth inhibition measured after 72 hrs by MTT assay; type: functional, cell-based; details: Lu1, 72 h
SW480 [9] = test: Antiproliferative activity against human SW480 cells assessed as cell growth inhibition measured after 72 hrs by MTT assay; type: functional, cell-based; details: SW480, 72 h
HL-60 [10] = test: Antiproliferative activity against human HL-60 cells assessed as cell growth inhibition measured after 72 hrs by MTT assay; type: functional, cell-based; details: HL-60, 72 h
SW480 [11] = test: Antiproliferative activity against human SW480 cells assessed as cell growth inhibition; type: functional, cell-based
[12] = Antiproliferative activity against human Lu1 cells assessed as cell growth inhibition; type: functional, cell-based
HepG2 [13] = test: Antiproliferative activity against human HepG2 cells assessed as cell growth inhibition; type: functional, cell-based
HL-60 [14] = test: Antiproliferative activity against human HL-60 cells assessed as cell growth inhibition; type: functional, cell-based
[15] = biological target: Indoleamine 2,3-dioxygenase 1 (Homo sapiens, UniProt P14902); test: Inhibition of IDO1 in human Hela cells assessed as reduction in N-formylkynurenine formation incubated for 30 mins; type: cell-based
Indoleamine 2,3-dioxygenase 1, sequence (P14902 whole entry): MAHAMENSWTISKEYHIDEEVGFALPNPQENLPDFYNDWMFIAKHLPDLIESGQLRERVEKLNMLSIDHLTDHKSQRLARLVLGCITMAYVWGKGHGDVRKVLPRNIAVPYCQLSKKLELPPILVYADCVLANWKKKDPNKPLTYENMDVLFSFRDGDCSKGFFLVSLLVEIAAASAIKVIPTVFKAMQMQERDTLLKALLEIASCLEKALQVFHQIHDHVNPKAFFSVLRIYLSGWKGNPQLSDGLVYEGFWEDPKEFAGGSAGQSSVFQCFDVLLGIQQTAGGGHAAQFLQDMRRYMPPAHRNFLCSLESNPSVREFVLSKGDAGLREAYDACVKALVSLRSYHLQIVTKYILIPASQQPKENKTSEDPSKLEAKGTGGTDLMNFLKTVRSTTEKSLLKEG

K562 = test: Antiproliferative activity against human K562 cells assessed as cell growth inhibition measured after 48 hrs by CCK-8 assay; type: functional, cell-based; details: K562, 48 h
DU-145 [16] = test: Antiproliferative activity against human DU-145 cells assessed as cell growth inhibition by MTT assay; type: functional, cell-based
NCI-H157 = test: Cytotoxicity against human NCI-H157 cells assessed as cell growth inhibition at 100 uM by calcein-AM staining based flow cytometry analysis relative to control; type: functional; set-up: scale not given: the % may be the effect or the level left
SK-MEL19 = test: Cytotoxicity against human SK-MEL19 cells assessed as cell growth inhibition measured after 24 hrs by WST-1 assay; type: functional, cell-based; details: SK-MEL19, 24 h
[17] = Cytotoxicity against human SK-MEL-29 cells assessed as cell growth inhibition measured after 24 hrs by WST-1 assay; type: functional, cell-based; details: SK-MEL-29, 24 h
SK-MEL-103 = test: Cytotoxicity against human SK-MEL-103 cells assessed as cell growth inhibition measured after 24 hrs by WST-1 assay; type: functional, cell-based; details: SK-MEL-103, 24 h
SK-MEL-147 = test: Cytotoxicity against human SK-MEL-147 cells assessed as cell growth inhibition measured after 24 hrs by WST-1 assay; type: functional, cell-based; details: SK-MEL-147, 24 h
HL-60 [18] = test: Cytotoxicity against human HL-60 cells assessed as cell growth inhibition; type: functional, cell-based
MCF7 [19] = test: Cytotoxicity against human MCF7 cells assessed as cell growth inhibition; type: functional, cell-based
[20] = Inhibition of CDK2/cyclin E (unknown origin); set-up: species or system Homo sapiens
HL-60 [21] = test: Cytotoxicity against human HL-60 cells assessed as cell growth inhibition measured after 24 hrs by MTT assay; details: HL-60, 24 h, read-out: LC50
U-87 MG = test: Cytotoxicity against human U87 cells assessed as cell growth inhibition measured after 24 hrs by MTT assay
HeLa = test: Cytotoxicity against human HeLa cells assessed as cell growth inhibition measured after 24 hrs by SRB assay
U-118-MG = test: cells; details: Homo sapiens, 24 h
Description: Cytotoxicity against human U-118-MG cells assessed as cell growth inhibition measured after 24 hrs by MTT assay

**Q.** What does the source list for `NCCO/N=C1/C(=C2/C(=O)Nc3ccc(Br)cc32)Nc2ccc(O)cc21`?
**A.** pIC50 (A549): 6.00; pIC50 (CH1): 6.55; pIC50 (SW480 [1]): 6.28

**Q.** With `CCN1C(=O)/C(=C2\Nc3ccccc3\C2=N/O)c2ccccc21` as the compound, how does the pIC50 (PC-3) read?
**A.** The pIC50 was 4.87.

**Q.** And the pIC50 (MCF7 [2])?
**A.** Its pIC50 is 5.17.

**Q.** What about the pIC50 (LoVo) of the same compound?
**A.** Its pIC50 is 5.07.

**Q.** And the pIC50 (LNCaP)?
**A.** The pIC50 was 4.99.

**Q.** And the pIC50 (DU-145 [3])?
**A.** Its pIC50 is 5.13.

**Q.** With `CN(C)CCN(C)S(=O)(=O)c1ccc2c(c1)/C(=C1/Nc3ccccc3C1(C)O)C(=O)N2` (stereo not given) as the compound, how does the pIC50 [4] read?
**A.** Its pIC50 is 7.15.

**Q.** And the pIC50 (MCF7 [5])?
**A.** Its pIC50 is greater than 7.00.

**Q.** And the solubility kinetic [6]?
**A.** The solubility kinetic was greater than 40 µg/mL.

**Q.** With `CN(C)S(=O)(=O)c1ccc2c(c1)/C(=C1/Nc3ccccc3C1(C)O)C(=O)N2` (stereo not given) as the compound, how does the pIC50 [4] read?
**A.** The pIC50 was 7.15.

**Q.** And the pIC50 (MCF7 [5])?
**A.** The pIC50 was 6.15.

**Q.** What about the solubility kinetic [6] of the same compound?
**A.** Its solubility kinetic is greater than 40 µg/mL.

**Q.** With `CC(C)N1C(=O)/C(=C2\Nc3ccccc3C2=O)c2cccnc21` as the compound, how does the pIC50 (CDK2/Cyclin A2) read?
**A.** The pIC50 was 5.02.

**Q.** With `CCOc1ccccc1/C=C/C(=O)c1ccc(OCCn2cc(CN3C(=O)/C(=C4\Nc5ccccc5\C4=N/O)c4ccccc43)nn2)cc1O` as the compound, how does the pIC50 (HepG2 [7]) read?
**A.** The pIC50 was 5.70.

**Q.** And the pIC50 [8]?
**A.** Its pIC50 is 5.89.

**Q.** And the pIC50 (SW480 [9])?
**A.** Its pIC50 is 5.60.

**Q.** What about the pIC50 (HL-60 [10]) of the same compound?
**A.** The pIC50 was 6.01.

**Q.** Which results are given for `CC(=O)O[C@H](CN)CC(=O)O/N=C1/C(=C2/C(=O)Nc3ccccc32)Nc2ccc(O)cc21`?
**A.** pIC50 (A549): 5.12; pIC50 (CH1): 5.74; pIC50 (SW480 [1]): 5.25

**Q.** Which results are given for `Cc1ccc(Nc2nnc(SCC(O)CN3C(=O)/C(=C4\Nc5ccccc5C4=O)c4ccccc43)s2)c(C)c1` (stereo not given)?
**A.** pIC50 (SW480 [11]): 5.38; pIC50 [12]: 5.34; pIC50 (HepG2 [13]): 5.35; pIC50 (HL-60 [14]): 5.37

**Q.** With `O=C1CCC(N2C(=O)c3cccc(-n4cc(COCCOCCOCCN5C(=O)/C(=C6\Nc7ccccc7C6=O)c6ccccc65)nn4)c3C2=O)C(=O)N1` (stereo not given) as the compound, how does the pIC50 [15] read?
**A.** The pIC50 was 4.47.

**Q.** What about the pIC50 (K562) of the same compound?
**A.** Its pIC50 is 4.37.

**Q.** With `CCN1C(=O)/C(=C2\Nc3ccccc3C2=O)c2cccnc21` as the compound, how does the pIC50 (CDK2/Cyclin A2) read?
**A.** The pIC50 was 5.92.

**Q.** And the pIC50 (DU-145 [16])?
**A.** The pIC50 was 4.40.

**Q.** What does the source list for `CCCOc1ccccc1/C=C/C(=O)c1ccc(OCCn2cc(CN3C(=O)/C(=C4\Nc5ccccc5\C4=N/O)c4ccccc43)nn2)cc1O`?
**A.** pIC50 (HepG2 [7]): 5.64; pIC50 [8]: 5.68; pIC50 (SW480 [9]): 5.46; pIC50 (HL-60 [10]): 5.89

**Q.** With `O=C1Nc2ccc(OC(F)(F)F)cc2/C1=C1/[Se]c2ccccc2C1=O` as the compound, how does the Activity (NCI-H157) read?
**A.** The Activity was 17.4%.

**Q.** With `C=CCC1(O)/C(=C2/C(=O)Nc3ccc(S(=O)(=O)N(C)C)cc32)Nc2ccccc21` (stereo not given) as the compound, how does the pIC50 [4] read?
**A.** The pIC50 was 7.05.

**Q.** What about the pIC50 (MCF7 [5]) of the same compound?
**A.** The pIC50 was 6.70.

**Q.** What about the solubility kinetic [6] of the same compound?
**A.** The solubility kinetic was 31 µg/mL (≈ 75.3 µM).

**Q.** With `CCN1C(=O)/C(=C2\Nc3ccccc3\C2=N/O)c2cccnc21` as the compound, how does the pIC50 (DU-145 [16]) read?
**A.** The pIC50 was 5.10.

**Q.** Which results are given for `C[C@@H]1O[C@H](N2C(=O)/C(=C3\Sc4ccccc4C3=O)c3ccccc32)[C@H](O)[C@H](O)[C@H]1O`?
**A.** pIC50 (SK-MEL19): 4.92; pIC50 [17]: 5.20; pIC50 (SK-MEL-103): 4.98; pIC50 (SK-MEL-147): 5.12

**Q.** What does the source list for `O=C1/C(=C2/C(=O)N([C@H]3O[C@H](CO)[C@@H](O)[C@H](O)[C@@H]3O)c3ccccc32)Sc2ccccc21`?
**A.** pIC50 (SK-MEL19): 5.24; pIC50 [17]: 5.40; pIC50 (SK-MEL-103): 5.17; pIC50 (SK-MEL-147): 5.37

**Q.** With `O=C1/C(=C2/C(=O)N(CCN3CCCC3)c3ccccc32)Nc2ccccc21` as the compound, how does the pIC50 (HL-60 [18]) read?
**A.** The pIC50 was 5.45.

**Q.** With `O=C1/C(=C2/C(=O)N([C@H]3O[C@H](CO)[C@@H](O)[C@H](O)[C@@H]3O)c3ccccc32)[Se]c2ccccc21` as the compound, how does the Activity (NCI-H157) read?
**A.** The Activity was 21.5%.

**Q.** With `C=CCC1(O)/C(=C2/C(=O)Nc3ccc(S(=O)(=O)N(C)CCN(C)C)cc32)Nc2ccccc21` (stereo not given) as the compound, how does the pIC50 [4] read?
**A.** Its pIC50 is 7.40.

**Q.** And the pIC50 (MCF7 [5])?
**A.** Its pIC50 is greater than 7.00.

**Q.** And the solubility kinetic [6]?
**A.** Its solubility kinetic is greater than 40 µg/mL.

**Q.** Which results are given for `Cc1cn(C2CC(n3cc(COCCOCCOCCN4C(=O)/C(=C5\Nc6ccccc6C5=O)c5ccccc54)nn3)C(CO)O2)c(=O)[nH]c1=O` (stereo not given)?
**A.** pIC50 [15]: 4.26; pIC50 (K562): 4.47

**Q.** With `C[C@@H]1O[C@@H](N2C(=O)/C(=C3\Nc4ccccc4C3=O)c3ccccc32)[C@H](O)[C@H](O)[C@H]1O` as the compound, how does the pIC50 (MCF7 [19]) read?
**A.** The pIC50 was 6.12.

**Q.** With `O=C1Nc2ccccc2/C1=C1/Nc2ccccc2C1=O` [INDIRUBIN] as the compound, how does the pIC50 [20] read?
**A.** Its pIC50 is 5.12.

**Q.** What about the CC50 (HL-60 [21]) of the same compound?
**A.** The CC50 was 98.1 µg/mL (≈ 374 µM).

**Q.** And the pIC50 (U-87 MG)?
**A.** Its pIC50 is 4.90.

**Q.** What about the pIC50 (HeLa) of the same compound?
**A.** Its pIC50 is 4.40.

**Q.** What about the pIC50 (U-118-MG) of the same compound?
**A.** The pIC50 was 4.90.
